Measured values from patent US20250011404A1, “TARGETING APOE ENHANCES T-CELL KILLING IN CANCER IMMUNOTHERAPY” (Children's National Medical Center, priority 2021, published 2025).
“Also recorded” adds a separate entry of the source.

Legend:
[1] = system: vaccinated splenocytes co-cultured with Myc inhibited B16 tumor cells; test: IFNγ ELISA, vaccinated splenocytes co-cultured with immunogenic B16 cells; type: cell-based, mouse; details: vaccinated WT splenocytes + Myc-inhibited B16 cells, 48 hr, in presence of COG133, dose dependent
Protocol: To further investigate the influence of tumor secreted apoE on immune cell function, immunogenic B16 tumor cells (B16 cells treated with Myc inhibitors (0.25 μM BET+0.25 μM JQ1 for 4 days) were irradiated at 60 Gray and co-cultured with naïve C57/BL6 splenocytes in the presence of either apoE mimetic COG133 at 0.3, 3 and 9 μM or anti-APOE blocking antibody at 1, 10 and 30 μg/ml concentrations. Prior work has shown the immunogenic effect of treating cancer cells with Myc inhibitors and irradiation. IFNγ production was quantified by ELISA at 48 h. Splenocytes produced high levels of IFNγ when co-cultured with Myc-inhibited immunogenic B16 cells as shown in FIGS. 3A-3C. Exposure of these cells to apoE mimetic COG133 repressed IFNγ production (6-fold reduction) (FIG. 3A), while the presence of Anti-APOE antibody enhanced IFNγ production (3-fold increase) (FIG. 3B). We also tested IFNγ production from vaccinated splenocytes following co-culture with treated and untreated B16 cells in the presence of COG 133. […] In addition to IFNγ, we also quantified other cytokine/chemokines using ProcartaPlex multiplex immunoassay. […] In addition, using ProcartaPlex multiplex immunoassay, we also quantified other cytokines/chemokines produced in the reaction. […] Readings were measured at 450 nm using the EnSpire 2300 Multilabel plate reader (Perkin Elmer, Waltham, Massachusetts, US).

[2] = system: activated mouse T cells; test: Viability of CD3/CD28-activated T cells, flow cytometry with Sytox Red dead cell stain; type: cell-based; details: T cells activated with CD3/CD28 dynabeads; COG133 0, 3, 9, 15 and 30 μM; 48 hr
Protocol: FIG. 14A: T cells isolated from naïve mouse spleens were cultured in RPMI media, WT B16 conditioned media and apoE^−/− B16 conditioned media for 48 hr and the media was analyzed with ProcartaPlex multiplex immunoassay. […] Remarkably, these effects were reversed by incubating T-cells with conditioned media from apoE^−/− cells, similar to T-cells activated in control RPMI media alone. Results are expressed as mean score±SD. *p<0.05; **p<0.005; ***p<0.001, determined by unpaired two-tailed Student's t-test. FIG. 14B: The effect of apoE agonist peptide COG133 on the viability of activated mouse T cells was tested by culturing the cells in the presence of the indicated concentrations of peptide for 48 hr and cell death was quantified with flow cytometry using the APC-conjugated Sytox Red dead cell stain. […] The number in Quadrant 2 is the percentage of dead cells.
T cells were activated with CD3/CD28 dynabeads and the effects of COG133 (0, 3, 9, 15 and 30 μM concentrations) on T cell apoptosis were evaluated.
Spleens were collected from mice euthanized by C02 narcosis and cervical dislocation. Spleens were pulverized through a 40-μm mesh cell strainer and treated with ACK lysing buffer (Thermo Fisher) for 10 seconds to remove erythrocytes. […]

COG133: a fragment of apoE peptide, which competes with the apoE holoprotein for binding the LDL receptors and acts as an apoE mimetic
IFNγ production from vaccinated splenocytes [1]: inhibited; also recorded: inhibitory; also recorded: significantly suppressed | IFNγ production from vaccinated splenocytes ([1]; listed as COG 133): suppressed | T cell viability [2]: diminished in a dose dependent manner; also recorded: decreases in a dose dependent fashion
